Experimental data from patent US12202835B2, “Substituted aromatic ring-linked dioxinoquinazolines and dioxinoquinolines as kinase inhibitors” (BEIJING SCITECH-MQ PHARMACEUTICALS LIMITED, priority 2018, dated 2025).

Columns and labels:
TRKA kinase = TRKA kinase (Homo sapiens (Human), UniProt P04629); experiment: Assay of small molecular compounds for inhibiting the activity of TRKA kinase (LANCE TR-FRET); format: biochemical
How it was run: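 TRKA (supplied as 2 nM 2× solution) was pre-reacted with compounds for 5 min at room temperature before a 4× ULight-TK peptide/ATP mix (400 nM/40 μM) started the 60-min dark reaction at 1% DMSO. After stop and 60-min detection, TR-FRET was read.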

VEGFR-2 kinase = VEGFR-2 kinase (Homo sapiens (Human), UniProt P35968); experiment: Assay of small molecular compounds for inhibiting the activity of VEGFR-2 kinase (LANCE TR-FRET); format: biochemical; conditions: read-out: VEGFR2 IC50
How it was run: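 LANCE TR-FRET with human VEGFR-2 (2× stock 0.5 nM) preincubated 30 min with compound (final 2500 to 0.042 nM, 11-point 3-fold), then ULight-JAK-1 (Tyr1023) peptide/ATP added (4× stocks 200 nM/40 μM). Reaction 60 min room temperature, 4% DMSO; IC50 from inhibition-rate curve.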

Ba/F3-AXL cells = experiment: Assay for inhibiting the proliferation of Ba/F3-AXL cells (CCK-8); format: cell-based; conditions: 72 hours of incubation, medium with 100 ng/mL hGas6, CCK-8
Description: The values were then imported into Graphpad Prism 5 software for curve fitting, and IC50 was calculated.

Ba/F3 LMNA-NTRK1 cells = experiment: Assay for inhibiting the proliferation of Ba/F3 LMNA-NTRK1 cells (CCK-8); format: cell-based; conditions: Mus musculus, BaF3
How it was run: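 Viability was read as absorbance at 450 nm following 1–2 h CCK-8 incubation at 37 °C, relative to control and blank wells.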

Sequence of TRKA kinase (P04629 33-796): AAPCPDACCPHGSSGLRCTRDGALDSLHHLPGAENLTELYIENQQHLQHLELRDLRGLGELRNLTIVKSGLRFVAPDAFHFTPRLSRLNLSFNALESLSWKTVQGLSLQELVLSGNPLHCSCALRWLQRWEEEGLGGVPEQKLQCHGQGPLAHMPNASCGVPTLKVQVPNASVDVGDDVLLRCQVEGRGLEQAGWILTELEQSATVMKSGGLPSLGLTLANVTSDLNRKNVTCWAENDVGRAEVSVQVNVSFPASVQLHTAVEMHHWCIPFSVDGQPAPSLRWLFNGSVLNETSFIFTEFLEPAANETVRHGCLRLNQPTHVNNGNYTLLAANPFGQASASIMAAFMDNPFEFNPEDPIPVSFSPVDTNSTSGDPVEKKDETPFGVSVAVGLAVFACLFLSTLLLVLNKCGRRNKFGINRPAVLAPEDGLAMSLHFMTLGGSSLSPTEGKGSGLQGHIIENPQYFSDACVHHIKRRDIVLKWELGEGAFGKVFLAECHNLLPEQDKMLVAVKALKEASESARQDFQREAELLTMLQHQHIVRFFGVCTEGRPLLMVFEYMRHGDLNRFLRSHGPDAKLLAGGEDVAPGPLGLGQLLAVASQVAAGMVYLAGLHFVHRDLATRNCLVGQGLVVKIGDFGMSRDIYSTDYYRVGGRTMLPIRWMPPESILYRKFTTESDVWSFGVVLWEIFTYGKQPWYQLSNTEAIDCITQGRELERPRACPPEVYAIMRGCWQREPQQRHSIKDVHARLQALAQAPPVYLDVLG
Sequence of VEGFR-2 kinase (P35968 20-1356): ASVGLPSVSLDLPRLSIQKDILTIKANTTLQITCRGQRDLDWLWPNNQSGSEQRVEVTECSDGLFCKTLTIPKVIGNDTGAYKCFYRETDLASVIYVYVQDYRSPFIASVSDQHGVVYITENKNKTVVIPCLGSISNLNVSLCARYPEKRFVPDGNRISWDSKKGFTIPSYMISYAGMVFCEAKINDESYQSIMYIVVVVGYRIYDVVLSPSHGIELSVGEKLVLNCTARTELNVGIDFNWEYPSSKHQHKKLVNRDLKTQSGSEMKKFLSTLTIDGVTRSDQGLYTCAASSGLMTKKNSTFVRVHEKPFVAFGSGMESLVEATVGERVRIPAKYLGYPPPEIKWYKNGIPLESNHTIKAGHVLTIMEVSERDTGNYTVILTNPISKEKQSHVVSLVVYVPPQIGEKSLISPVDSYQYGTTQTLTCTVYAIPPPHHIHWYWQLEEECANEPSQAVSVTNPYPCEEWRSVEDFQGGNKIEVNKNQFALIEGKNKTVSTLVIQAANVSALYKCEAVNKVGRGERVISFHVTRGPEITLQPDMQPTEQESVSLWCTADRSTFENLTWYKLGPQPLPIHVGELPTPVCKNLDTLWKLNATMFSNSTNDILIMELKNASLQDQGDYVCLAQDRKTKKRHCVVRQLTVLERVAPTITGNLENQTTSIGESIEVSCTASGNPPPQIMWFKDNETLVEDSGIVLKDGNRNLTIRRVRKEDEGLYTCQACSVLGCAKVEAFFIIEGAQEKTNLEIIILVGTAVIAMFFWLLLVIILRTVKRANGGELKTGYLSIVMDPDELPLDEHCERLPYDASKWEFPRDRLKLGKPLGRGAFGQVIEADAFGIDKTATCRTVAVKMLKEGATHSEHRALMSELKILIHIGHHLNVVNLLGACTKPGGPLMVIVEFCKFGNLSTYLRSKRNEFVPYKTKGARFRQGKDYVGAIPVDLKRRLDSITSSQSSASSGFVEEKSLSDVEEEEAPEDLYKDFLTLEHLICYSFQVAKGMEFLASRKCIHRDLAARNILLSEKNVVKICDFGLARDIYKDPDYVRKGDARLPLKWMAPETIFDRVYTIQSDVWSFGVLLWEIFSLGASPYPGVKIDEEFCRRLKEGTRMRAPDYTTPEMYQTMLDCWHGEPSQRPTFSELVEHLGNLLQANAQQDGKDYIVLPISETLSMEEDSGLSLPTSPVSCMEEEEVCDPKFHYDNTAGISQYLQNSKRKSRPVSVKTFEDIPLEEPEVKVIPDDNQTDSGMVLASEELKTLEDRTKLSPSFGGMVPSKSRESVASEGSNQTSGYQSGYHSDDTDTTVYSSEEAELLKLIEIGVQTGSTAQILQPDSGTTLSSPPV

Row | Structure (SMILES) | IC50 (TRKA kinase) | IC50 (VEGFR-2 kinase) | IC50 (Ba/F3-AXL cells) | IC50 (Ba/F3 LMNA-NTRK1 cells)
1 | CC(C)n1cc(C(=O)Nc2ccc(Oc3ccnc4cc(OCCCN5CCCCC5)c5c(c34)OCCO5)c(F)c2)c(=O)n(-c2ccc(F)cc2)c1=O [Example 40, N-(3-fluoro-4-((5-(3-(piperidin-1-yl)propoxy)-2,3-dihydro-[1,4]dioxino[2,3-f]quinolin-10-yl)oxy)phenyl)-3-(4-fluorophenyl)-1-isopropyl-2,4-dioxo-1,2,3,4-tetrahydropyrimidine-5-carboxamide] | < 50 nM | 50 to 500 nM | < 50 nM | < 50 nM
2 | CCn1cc(C(=O)Nc2ccc(Oc3ccnc4cc(OCCCN5CCOCC5)c5c(c34)OCCO5)c(F)c2)c(=O)n(-c2ccc(F)cc2)c1=O [Example 38, N-(3-fluoro-4-((5-(3-morpholinopropoxy)-2,3-dihydro-[1,4]dioxino[2,3-f]quinolin-10-yl)oxy)phenyl)-3-(4-fluorophenyl)-1-ethyl-2,4-dioxo-1,2,3,4-tetrahydropyrimidine-5-carboxamide] | < 50 nM | 50 to 500 nM | < 50 nM | < 50 nM
3 | Cn1cc(C(=O)Nc2ccc(Oc3ccnc4cc(OCC(C)(C)O)c5c(c34)OCCO5)cc2Cl)c(=O)n(-c2ccc(F)cc2)c1=O [Example 141, N-(2-chloro-4-((5-(2-hydroxy-2-methylpropoxy)-2,3-dihydro-[1,4]dioxino[2,3-f]quinolin-10-yl)oxy)phenyl)-3-(4-fluorophenyl)-1-methyl-2,4-dioxo-1,2,3,4-tetrahydropyrimidine-5-carboxamide] | < 50 nM |  | < 50 nM | < 50 nM
4 | COCCOc1cc2nccc(Oc3ccc(NC(=O)c4c(OC)ccn(-c5ccc(F)cc5)c4=O)cc3F)c2c2c1OCCO2 [Example 35, N-(3-fluoro-4-((5-(2-methoxyethoxy)-2,3-dihydro-[1,4]dioxino[2,3-f]quinolin-10-yl)oxy)phenyl)-1-(4-fluorophenyl)-4-methoxy-2-oxo-1,2-dihydropyridine-3-carboxamide] | < 50 nM | ≤ 50 nM | < 50 nM | < 50 nM
5 | COCCN(C)CCCOc1cc2nccc(Oc3ccc(NC(=O)c4cn(C(C)C)c(=O)n(-c5ccc(F)cc5)c4=O)cc3F)c2c2c1OCCO2 [Example 95, N-(3-fluoro-4-((5-(3-((2-methoxyethyl)(methyl)amino)propoxy)-2,3-dihydro-[1,4]dioxino[2,3-f]quinolin-10-yl)oxy)phenyl)-3-(4-fluorophenyl)-1-isopropyl-2,4-dioxo-1,2,3,4-tetrahydropyrimidine-5-carboxamide] | < 50 nM | 500 to 5000 nM | < 50 nM | 50 to 200 nM
6 | CCOc1ccn(-c2ccc(C)cc2)c(=O)c1C(=O)Nc1ccc(Oc2ccnc3cc(OC)c4c(c23)OCCO4)c(F)c1 [Example 112, N-(3-fluoro-4-((5-methoxy-2,3-dihydro-[1,4]dioxino[2,3-f]quinolin-10-yl)oxy)phenyl)-2-oxo-4-ethoxy-1-(4-methylphenyl)-1,2-dihydropyridin-3-carboxamide] | < 50 nM | 50 to 500 nM | < 50 nM | < 50 nM
7 | CCOc1ccn(-c2ccc(Cl)cc2)c(=O)c1C(=O)Nc1ccc(Oc2ccnc3cc(OC)c4c(c23)OCCO4)c(F)c1 [Example 113, N-(3-fluoro-4-((5-methoxy-2,3-dihydro-[1,4]dioxino[2,3-f]quinolin-10-yl)oxy)phenyl)-2-oxo-4-ethoxy-1-(4-chlorophenyl)-1,2-dihydropyridin-3-carboxamide] | < 50 nM | 50 to 500 nM | < 50 nM | < 50 nM
8 | CC(C)n1cc(C(=O)Nc2ccc(Oc3ccnc4cc(OCCCN5CCOCC5)c5c(c34)OCCO5)c(F)c2)c(=O)n(-c2ccc(F)cc2)c1=O [Example 16, N-(3-fluoro-4-((5-(3-morpholinopropoxy)-2,3-dihydro-[1,4]dioxino[2,3-f]quinolin-10-yl)oxy)phenyl)-3-(4-fluorophenyl)-1-isopropyl-2,4-dioxo-1,2,3,4-tetrahydropyrimidine-5-carboxamide] | < 50 nM |  | < 50 nM | < 50 nM

More lines, now with the values ahead:

Row | IC50 (TRKA kinase) | IC50 (VEGFR-2 kinase) | IC50 (Ba/F3-AXL cells) | IC50 (Ba/F3 LMNA-NTRK1 cells) | Structure (SMILES)
9 | < 50 nM | 500 to 5000 nM | < 50 nM | < 50 nM | CCOc1ccn(-c2ccc(F)cc2)c(=O)c1C(=O)Nc1cc(F)c(Oc2ccnc3cc(OC)c4c(c23)OCCO4)cc1Cl [Example 115, N-(2-chloro-5-fluoro-4-((5-methoxy-2,3-dihydro-[1,4]dioxino[2,3-f]quinolin-10-yl)oxy)phenyl)-4-ethoxy-2-oxo-1-(4-fluorophenyl)-1,2-dihydropyridin-3-carboxamide]
10 | < 50 nM | > 5000 nM | < 50 nM | < 50 nM | COc1cc2nccc(Oc3cc(Cl)c(NC(=O)c4cn(C)c(=O)n(-c5ccc(F)cc5)c4=O)cc3F)c2c2c1OCCO2 [Example 116, N-(2-chloro-5-fluoro-4-((5-methoxy-2,3-dihydro-[1,4]dioxino[2,3-f]quinolin-10-yl)oxy)phenyl)-3-(4-fluorophenyl)-1-methyl-2,4-dioxo-1,2,3,4-tetrahydropyrimidine-5-carboxamide]
11 | < 50 nM | ≤ 50 nM | < 50 nM | < 50 nM | COc1cc2nccc(Oc3ccc(NC(=O)c4c(OC)ccn(-c5ccc(F)cc5)c4=O)cc3F)c2c2c1OCCO2 [Example 18, N-(3-fluoro-4-((5-methoxy-2,3-dihydro-[1,4]dioxino[2,3-f]quinolin-10-yl)oxy)phenyl)-1-(4-fluorophenyl)-4-methoxy-2-oxo-1,2-dihydropyridine-3-carboxamide]
12 | < 50 nM | ≤ 50 nM | < 50 nM | < 50 nM | COCCOc1cc2nccc(Oc3ccc(NC(=O)c4cccn(-c5ccc(F)cc5)c4=O)cc3F)c2c2c1OCCO2 [Example 34, N-(3-fluoro-4-((5-(2-methoxyethoxy)-2,3-dihydro-[1,4]dioxino[2,3-f]quinolin-10-yl)oxy)phenyl)-1-(4-fluorophenyl)-2-oxo-1,2-dihydropyridine-3-carboxamide]
13 | < 50 nM | 50 to 500 nM | < 50 nM | < 50 nM | Cn1cc(C(=O)Nc2ccc(Oc3ccnc4cc(OCCCN5CCCCC5)c5c(c34)OCCO5)c(F)c2)c(=O)n(-c2ccc(F)cc2)c1=O [Example 39, N-(3-fluoro-4-((5-(3-(piperidin-1-yl)propoxy)-2,3-dihydro-[1,4]dioxino[2,3-f]quinolin-10-yl)oxy)phenyl)-3-(4-fluorophenyl)-1-methyl-2,4-dioxo-1,2,3,4-tetrahydropyrimidine-5-carboxamide]
14 | 50 to 500 nM | > 5000 nM | < 50 nM |  | CC(C)n1cc(C(=O)Nc2ccc(Oc3ccnc4cc(OCC5(N)CC5)c5c(c34)OCCO5)c(F)c2)c(=O)n(-c2ccc(F)cc2)c1=O [Example 106, N-(3-fluoro-4-((5-((1-aminocyclopropyl)methoxy)-2,3-dihydro-[1,4]dioxino[2,3-f]quinolin-1 0-yl)oxy)phenyl)-3-(4-fluorophenyl)-1-isopropyl-2,4-dioxo-1,2,3,4-tetrahydropyrimidine-5-carboxamide]
15 | 50 to 500 nM | 50 to 500 nM | < 50 nM |  | CCOc1ccn(-c2cccc(F)c2)c(=O)c1C(=O)Nc1ccc(Oc2ccnc3cc(OC)c4c(c23)OCCO4)c(F)c1 [Example 114, N-(3-fluoro-4-((5-methoxy-2,3-dihydro-[1,4]dioxino[2,3-f]quinolin-10-yl)oxy)phenyl)-2-oxo-4-ethoxy-1-(3-fluorophenyl)-1,2-dihydropyridin-3-carboxamide]
